Laboratory results reported in patent US9510597B2, “Microbicidal composition” (Dow Global Technologies LLC, priority 2012, dated 2016).
Structures can show the parent of a compound that is named as a salt.

Experiments:
Assay type in all cases: cell-based
[1] = system: Candida albicans (ATCC #10231); assay: Minimum Inhibitory Concentration (MIC) synergy study, yeast; settings: for MIC: Candida albicans; for Minimum Inhibitory Concentration (ppm) MBIT: C. albicans, MBIT alone (1:0) or MBIT portion of the mixture
Protocol: (§1) The synergism of the biocides combination of the present invention was determined using the method described by Kull, F. C, et. all in Applied Microbiology 9:538-541 (1961). […] In this invention, two different approaches of synergistic study were conducted. One synergistic study is determined based on the minimum inhibitory concentration (MIC), the lowest concentration of a biocide prevents the growth of tested microorganism under a specific set of conditions. The second study was based on three to four consecutive challenge testing. This test was conducted to take biocide mode of action and speed of kill into a consideration.
(§2) The microorganisms tested are Escherichia coli (E. coli, ATCC #8739), yeast, Candida albicans (c. albicans, ATCC #10231) and mold, Aspergillus niger (a. niger, ATCC #16404). The final concentration of microorganisms in the tested media is about 10^4 cfu/mL
(§3) MBIT synergy with a secondary biocide was determined by evaluating the minimum biocide or biocide blend concentration required to inhibit microbial growth. All studies were conducted using a 96 well microtiter plate format. For all studies, 200 μl of microbial growth media, containing various concentrations of MBIT alone, the secondary biocide alone, or combinations of both biocide chemistries, was added to individual wells of a microtiter plate. Specifically, Tryptic Soy Broth (TSB) was utilized for bacteria (E. coli, ATCC #8739), Yeast Malt Extract Broth (YMB) for yeast (Candida albicans, ATCC #10231) and Potato Dextrose Broth (PDB) for mold (Aspergillus niger, ATCC #16404). Test organisms, at a final concentration of 10^4 CFU/mL or 10^4 spores/mL, were applied to each well in parallel experiments to initiate the MIC evaluations. Growth medium containing no biocide was utilized as a control in each experimental setup to confirm the growth viability of each organism. Eight concentrations (2-fold dilutions) of each individual biocide were evaluated in the microbial growth inhibition studies in addition to the 64 possible combinations of these biocide concentrations. Evaluation of the individual biocide concentrations is required to achieve an inhibitory concentration end point for synergy index calculation. […] Individual wells were scored as growth or no growth based on visual organism growth turbidity.

[2] = system: Escherichia coli (ATCC #8739); assay: Minimum Inhibitory Concentration (MIC) synergy study, bacteria; settings: for Minimum Inhibitory Concentration (ppm) MBIT: E. coli, MBIT alone (1:0) or MBIT portion of the mixture
Protocol: as §1, §2, §3

[3] = system: Aspergillus niger (ATCC #16404); assay: Minimum Inhibitory Concentration (MIC) synergy study, mold; settings: for Minimum Inhibitory Concentration (ppm) MBIT: A. niger, MBIT alone (1:0) or MBIT portion of the mixture
Protocol: as §1, §2, §3

[4] = system: Escherichia coli (ATCC #8739); assay: Minimum Kill Concentration (MKC) repeated challenge test, bacteria; settings: for Minimum Inhibitory Concentration (ppm) MBIT: MBIT alone (1:0) or MBIT portion of the mixture; for MIC: Escherichia coli
Protocol: as §1
(§4) MKC evaluations were utilized to determine the synergy of MBIT with the co-biocides DXN (6-Acetoxy-2,4-dimethyl-m-dioxane) and THNM (2-Hydroxymethyl-2-nitro-1,3-propanediol) due to the inability to evaluate these particular biocide chemistries in MIC evaluations. The following test methods were designed for the evaluation of the aforementioned synergistic combinations. The results can be found in Tables 7 and 8.
Testing began (day 0) by applying sterile water, supplemented with 2.0% TSB, to each well of a 96-well microtiter plate. Various concentrations of MBIT alone, the co-biocide alone, or combinations of both biocide chemistries, were added to individual wells of the microtiter plate followed by addition of Escherichia coli (ATCC #8739) at a final concentration of 5×10^4 CFU/mL. Equivalent inoculations were applied on days 7, 14 and 21 of the study. To determine the extent of bacterial kill, an aliquot (20 μl) of each sample was taken on days 1, 7, 8, 14, 15, 21, 22 and transferred to tryptic soy broth (180 μl). After 48 hours of incubation at 30° C., bacterial kill (to a maximum detection limit of 5×10^1 CFU/mL) was visually determined by the presence or lack of turbidity within the TSB.

[5] = system: Candida albicans (ATCC #10231); assay: Minimum Kill Concentration (MKC) repeated challenge test, yeast
Protocol: as §1, §4
(§5) Testing began (day 0) by applying sterile water, supplemented with 2.0% yeast malt extract broth, to each well of a 96-well microtiter plate. […] After 48 hours of incubation at 30° C., yeast kill (to a maximum detection limit of 5×10^1 CFU/mL) was visually determined by the presence or lack of turbidity within the YMB.

[6] = system: Aspergillus niger (ATCC #16404); assay: Minimum Kill Concentration (MKC) repeated challenge test, mold
Protocol: as §1, §4
as §5, with “potato dextrose” for “yeast malt extract”, “48-96” for “48”, “mold” for “yeast”, “spores/mL)” for “CFU/mL)”, “PDB.” for “YMB.”

Question: For `CCNc1nc(NC(C)(C)C)nc(SC)n1` [Terbutryn], which MIC ([1]; ATCC10231, Table 5, C. albicans, Terbutryn alone (0:1) or Terbutryn portion of the mixture, read-out: Minimum Inhibitory Concentration (ppm) Terbutryn) is on record?
Answer: > 20000 µg/mL

Question: For `Cn1sc2ccccc2c1=O` [MBIT, N-methyl-1,2-benzisothiazolin-3-one], which “Minimum Inhibitory Concentration (ppm) MBIT” value ([2]; Table 1, MBIT/DDG study) is on record?
Answer: 62.5 ppm

Question: And the “Minimum Inhibitory Concentration (ppm) MBIT” value ([2]; Table 2, MBIT/PHMB study)?
Answer: 12.5 ppm

Question: And the “Minimum Inhibitory Concentration (ppm) MBIT” value ([2]; Table 3, MBIT/NaPT study)?
Answer: 25 ppm

Question: What about the “Minimum Inhibitory Concentration (ppm) MBIT” value ([1]; Table 1, MBIT/DDG study) of the same compound?
Answer: 6.25 ppm

Question: What about the “Minimum Inhibitory Concentration (ppm) MBIT” value ([1]; Table 2, MBIT/PHMB study) of the same compound?
Answer: 0.3125 ppm

Question: And the “Minimum Inhibitory Concentration (ppm) MBIT” value ([1]; Table 5, MBIT/Terbutryn study)?
Answer: 3 ppm

Question: What about the “Minimum Inhibitory Concentration (ppm) MBIT” value ([3]; Table 1, MBIT/DDG study) of the same compound?
Answer: 10 ppm

Question: What about the “Minimum Inhibitory Concentration (ppm) MBIT” value ([3]; Table 3, MBIT/NaPT study) of the same compound?
Answer: 6.3 ppm

Question: What about the “Minimum Inhibitory Concentration (ppm) MBIT” value ([3]; Table 4, MBIT/NaOPP study) of the same compound?
Answer: 6.3 ppm

Question: And the “Minimum Inhibitory Concentration (ppm) MBIT” value ([4]; Table 7, MBIT/DXN study, kill of E. coli at day 7)?
Answer: 62.5 ppm

Question: And the “Minimum Inhibitory Concentration (ppm) MBIT” value ([4]; Table 8, MBIT/THNM study, kill of E. coli at day 21)?
Answer: 125 ppm

Question: And the “Minimum Inhibitory Concentration (ppm) MBIT” value ([5]; Table 7, MBIT/DXN study, kill of C. albicans at day 21, MBIT alone (1:0) or MBIT portion of the mixture)?
Answer: 6.25 ppm

Question: What about the “Minimum Inhibitory Concentration (ppm) MBIT” value ([6]; Table 7, MBIT/DXN study, kill of A. niger at Day 21, MBIT alone (1:0) or MBIT portion of the mixture) of the same compound?
Answer: 10 ppm

Question: `[Na+].[O-][n+]1ccccc1[S-]` [NaPT, Sodium pyrithione] was tested. Which “Minimum Inhibitory Concentration (ppm) NaPT” value ([2]; Table 3, E. coli, NaPT alone (0:1) or NaPT portion of the mixture) did it give?
Answer: 2.5 ppm

Question: And the “Minimum Inhibitory Concentration (ppm) NaPT” value ([3]; Table 3, A. niger, NaPT alone (0:1) or NaPT portion of the mixture)?
Answer: 25 ppm

Question: `O=[N+]([O-])C(CO)(CO)CO` [THNM, 2-Hydroxymethyl-2-nitro-1,3-propanediol] was tested. Which MIC ([4]; ATCC8739, 504 h, Table 8, kill of E. coli at day 21, THNM alone (0:1) or value printed for the mixture, read-out: Minimum Inhibitory Concentration (ppm) THMN) did it give?
Answer: 125 µg/mL

Question: `CCCCCCCCCCCCNC(=N)N` [DDG, Dodecylguanidine hydrochloride] was tested. Which MIC ([2]; Escherichia coli, ATCC8739, read-out: Minimum Inhibitory Concentration (ppm) DDG) did it give?
Answer: 875 µg/mL

Question: What about the MIC ([1]; ATCC10231, read-out: Minimum Inhibitory Concentration (ppm) DDG) of the same compound?
Answer: 2000 µg/mL

Question: And the MIC ([3]; Aspergillus niger, ATCC16404, read-out: Minimum Inhibitory Concentration (ppm) DDG)?
Answer: 750 µg/mL

Question: For `[Na+].[O-]c1ccccc1-c1ccccc1` [NaOPP, sodium ortho-phenylphenate], which “Minimum Inhibitory Concentration (ppm) NaOPP” value ([3]; Table 4, A. niger, NaOPP alone (0:1) or NaOPP portion of the mixture) is on record?
Answer: 200 ppm

Question: What does the source list for `CC(=O)OC1CC(C)OC(C)O1` (stereo not drawn) [DXN, 6-Acetoxy-2,4-dimethyl-m-dioxane]?
Answer: MIC ([4]; ATCC8739, 168 h, Table 7, kill of E. coli at day 7, DXN alone (0:1) or DXN portion of the mixture, read-out: Minimum Inhibitory Concentration (ppm) DXN): 875 µg/mL; MIC ([5]; Candida albicans, ATCC10231, 504 h, Table 7, kill of C. albicans at day 21, DXN alone (0:1) or DXN portion of the mixture, read-out: Minimum Inhibitory Concentration (ppm) DXN): 2000 µg/mL; MIC ([6]; Aspergillus niger, ATCC16404, 504 h, Table 7, kill of A. niger at Day 21, DXN alone (0:1) or DXN portion of the mixture, read-out: Minimum Inhibitory Concentration (ppm) DXN): 750 µg/mL
